Assay results published in patent US11236081B2, “Crystalline salts of corydalmine” (priority 2018, dated 2022).
Several values for one entry are separate records, joined by “and”; a condition that tells them apart may be missing. Identical values can stand only once.

Test: Pharmacokinetic study: plasma concentration and plasma PK parameters after IV/PO dosing (LC-MS/MS, WinNonlin)
Assay type: in vivo, Male SD Rat
Details: male SD rat
Procedure, shortened: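 Plasma levels after IV and oral dosing were measured by LC-MS/MS. Non-compartmental parameters came from concentration–time data: T1/2, C0, AUC, MRT, Cl and Vss for IV; T1/2, Cmax, Tmax, AUC, MRT and F% for PO. Values are given as mean and standard deviation.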

[1] = IV 3 mg/kg, plasma, individual rats, listed as TLZ-16 freebase, 3 mg/kg
[2] = PO 10 mg/kg (equal to freebase), plasma, individual rats, vehicle 20% HP-β-CD in water (POA, freebase) or water (salts), listed as TLZ-16 freebase, 10 mg/kg
[3] = PO 10 mg/kg (equal to freebase), plasma, mean n=3, vehicle 20% HP-β-CD in water (POA, freebase) or water (salts)

For `COc1cc2c(cc1OC)[C@@H]1Cc3ccc(O)c(OC)c3CN1CC2` [Compound (1), l-corydalmine], the concentration in plasma (IV 3 mg/kg, 0 h, individual rats) was “BLOQ (BLOQ = below limit of quantitation (0.2 ng/mL))”, the concentration in plasma (IV 3 mg/kg, 0.083 h, individual rats, listed as TLZ-16 freebase, 3 mg/kg) was 1410 ng/mL and 1610 ng/mL and the concentration in plasma (IV 3 mg/kg, 0.25 h, individual rats, listed as TLZ-16 freebase, 3 mg/kg) was 960 ng/mL and 995 ng/mL. For the same compound, the concentration in plasma (IV 3 mg/kg, 0.5 h, individual rats, listed as TLZ-16 freebase, 3 mg/kg) was 496 ng/mL and 536 ng/mL, the concentration in plasma (IV 3 mg/kg, 1 h, individual rats, listed as TLZ-16 freebase, 3 mg/kg) was 174 ng/mL and 206 ng/mL and the concentration in plasma (IV 3 mg/kg, 2 h, individual rats, listed as TLZ-16 freebase, 3 mg/kg) was 81.2 ng/mL and 60.6 ng/mL. The concentration in plasma (IV 3 mg/kg, 4 h, individual rats, listed as TLZ-16 freebase, 3 mg/kg) was 28.6 ng/mL and 43.0 ng/mL and 20.2 ng/mL, the concentration in plasma (IV 3 mg/kg, 8 h, individual rats, listed as TLZ-16 freebase, 3 mg/kg) was 5.24 ng/mL and 11.7 ng/mL and 2.20 ng/mL and the concentration in plasma (IV 3 mg/kg, 24 h, individual rats, listed as TLZ-16 freebase, 3 mg/kg) was “BLOQ (BLOQ = below limit of quantitation (0.2 ng/mL))”. The AUCInf [1] was 1074 ng·h/mL and 1030 ng·h/mL, the AUClast [1] was 1038 ng·h/mL and 1027 ng·h/mL and the AUClast/D [1] was 312 kg·ng·h/mL/mg and 346 kg·ng·h/mL/mg and 342 kg·ng·h/mL/mg. For the same compound, the “AUC—% Extrap_obs” value [1] was 1.32% and 3.37% and 0.306%, the C0 [1] was 1707 ng/mL and 2045 ng/mL and the Cl_obs [1] was 52.6 mL/min/kg and 46.5 mL/min/kg and 48.6 mL/min/kg. The MRTInf_obs [1] was 1.52 h and 1.08 h, the T1/2 [1] was 1.66 h and 2.14 h and 4.37 h and the Vss_obs [1] was 3.43 L/kg and 4.26 L/kg and 3.16 L/kg. For the same compound, the AUClast/D, Mean (IV 3 mg/kg, plasma, mean n=3) was 334 kg·ng·h/mL/mg, the “AUC—% Extrap_obs, Mean” value (IV 3 mg/kg, plasma, mean n=3) was 1.67% and the “C0, Mean” value (IV 3 mg/kg, plasma, mean n=3) was 1822 ng/mL. The “Cl_obs, Mean” value (IV 3 mg/kg, plasma, mean n=3) was 49.2 mL/min/kg, the “Vss_obs, Mean” value (IV 3 mg/kg, plasma, mean n=3) was 3.61 L/kg and the F (PO 10 mg/kg (equal to freebase) vs IV 3 mg/kg freebase, individual rats, vehicle 20% HP-β-CD in water (POA, freebase) or water (salts), listed as TLZ-16 freebase) was 18.4% and 27.3% and 24.4%. For the same compound, the “F, Mean” value (PO 10 mg/kg (equal to freebase) vs IV 3 mg/kg freebase, mean n=3, vehicle 20% HP-β-CD in water (POA, freebase) or water (salts)) was 23.4%, the concentration in plasma (PO 10 mg/kg (equal to freebase), 0 h, individual rats, vehicle 20% HP-β-CD in water (POA, freebase) or water (salts)) was “BLOQ (BLOQ = below limit of quantitation (0.2 ng/mL))” and the concentration in plasma (PO 10 mg/kg (equal to freebase), 0.25 h, individual rats, vehicle 20% HP-β-CD in water (POA, freebase) or water (salts), listed as TLZ-16 freebase, 10 mg/kg) was 127 ng/mL and 358 ng/mL and 86.7 ng/mL. For the same compound, the concentration in plasma (PO 10 mg/kg (equal to freebase), 0.5 h, individual rats, vehicle 20% HP-β-CD in water (POA, freebase) or water (salts), listed as TLZ-16 freebase, 10 mg/kg) was 139 ng/mL and 344 ng/mL and 109 ng/mL, the concentration in plasma (PO 10 mg/kg (equal to freebase), 1 h, individual rats, vehicle 20% HP-β-CD in water (POA, freebase) or water (salts), listed as TLZ-16 freebase, 10 mg/kg) was 167 ng/mL and 98.9 ng/mL and the concentration in plasma (PO 10 mg/kg (equal to freebase), 2 h, individual rats, vehicle 20% HP-β-CD in water (POA, freebase) or water (salts), listed as TLZ-16 freebase, 10 mg/kg) was 53.1 ng/mL and 71.9 ng/mL. For the same compound, the concentration in plasma (PO 10 mg/kg (equal to freebase), 4 h, individual rats, vehicle 20% HP-β-CD in water (POA, freebase) or water (salts), listed as TLZ-16 freebase, 10 mg/kg) was 47.1 ng/mL and 40.1 ng/mL, the concentration in plasma (PO 10 mg/kg (equal to freebase), 8 h, individual rats, vehicle 20% HP-β-CD in water (POA, freebase) or water (salts), listed as TLZ-16 freebase, 10 mg/kg) was 35.7 ng/mL and 45.3 ng/mL and the concentration in plasma (PO 10 mg/kg (equal to freebase), 24 h, individual rats, vehicle 20% HP-β-CD in water (POA, freebase) or water (salts), listed as TLZ-16 freebase, 10 mg/kg) was “BLOQ (BLOQ = below limit of quantitation (0.2 ng/mL)) and 0.278 ng/mL and 0.869 ng/mL”. The AUCInf [2] was 925 ng·h/mL and 829 ng·h/mL, the AUClast [2] was 924 ng·h/mL and 825 ng·h/mL and the AUClast/D [2] was 61.5 kg·ng·h/mL/mg and 92.4 kg·ng·h/mL/mg and 82.5 kg·ng·h/mL/mg. For the same compound, the “AUC—% Extrap_obs” value [2] was 58.7% and 0.111% and 0.505%, the Cmax [2] was 139 ng/mL and 358 ng/mL and 109 ng/mL and the MRTInf_obs [2] was 13.6 h and 4.19 h and 5.68 h. The T1/2 [2] was 8.80 h and 2.57 h and 3.34 h, the Tmax [2] was 0.25 h and the AUClast/D, Mean [3] was 78.8 kg·ng·h/mL/mg. The “AUC—% Extrap_obs, Mean” value [3] was 19.8%.
